According to patent US20260116920A1, “HUMAN TRANSFERRIN RECEPTOR BINDING PEPTIDE” (PEPTIDREAM INC., priority 2021, published 2026):
Where two headings read alike, the source gives them in different places. Positions of bridges follow the written chain, without caps; N, C: chain ends. Non-standard residues stand in square brackets, D forms with d. Residues, ends and D or L forms follow the SMILES beside them. *: point of attachment. Trp(1-CH2COOH) = N[C@@H](Cc1cn(CC(=O)O)c2ccccc12)C(=O)O; Nle(6-morpholino) = N[C@@H](CCCCN1CCOCC1)C(=O)O; Phe(3-COOH) = N[C@@H](Cc1cccc(C(=O)O)c1)C(=O)O; NH(CH2CH2O)8Me = COCCOCCOCCOCCOCCOCCOCCOCCN*; NMePhe(3-Cl) = CN[C@@H](Cc1cccc(Cl)c1)C(=O)O; 3Pal(6-NH2) = Nc1ccc(C[C@H](N)C(=O)O)cn1; NMe3Pal = CN[C@@H](Cc1cccnc1)C(=O)O; NMeY = CN[C@@H](Cc1ccc(O)cc1)C(=O)O; 3Pal = N[C@@H](Cc1cccnc1)C(=O)O; 4Pal = N[C@@H](Cc1ccncc1)C(=O)O; PEG4 = NCCOCCOCCOCCOCCC(=O)O; Carboxymethyl = O=C(O)C*

Target: T1, human transferrin receptor (hTfR) (Homo sapiens, UniProt P02786)
T1 construct: made in house
T1 sequence (P02786 89-760 limits assumed): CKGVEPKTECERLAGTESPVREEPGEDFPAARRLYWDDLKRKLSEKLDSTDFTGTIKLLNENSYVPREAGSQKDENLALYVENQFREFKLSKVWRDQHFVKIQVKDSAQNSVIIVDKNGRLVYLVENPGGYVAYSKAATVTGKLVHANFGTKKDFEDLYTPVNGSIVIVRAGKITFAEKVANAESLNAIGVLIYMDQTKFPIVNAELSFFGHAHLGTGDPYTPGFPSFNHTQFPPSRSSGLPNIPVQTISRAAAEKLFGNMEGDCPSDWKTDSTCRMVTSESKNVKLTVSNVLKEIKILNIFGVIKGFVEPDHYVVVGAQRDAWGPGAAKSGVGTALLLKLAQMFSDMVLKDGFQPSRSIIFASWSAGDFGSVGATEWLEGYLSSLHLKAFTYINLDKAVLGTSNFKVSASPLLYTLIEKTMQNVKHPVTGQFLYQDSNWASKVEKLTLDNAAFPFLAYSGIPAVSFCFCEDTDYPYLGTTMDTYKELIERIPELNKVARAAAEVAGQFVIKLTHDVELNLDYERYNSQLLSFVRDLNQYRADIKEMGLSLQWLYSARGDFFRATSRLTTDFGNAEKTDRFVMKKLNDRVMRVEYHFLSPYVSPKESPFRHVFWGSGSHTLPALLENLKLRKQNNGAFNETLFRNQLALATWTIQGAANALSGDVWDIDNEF
Assay: Evaluation of molecular interaction between transferrin receptor (hTfR) and peptide using surface plasmon resonance (SPR)
Format: binding
In short: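 KD values are derived by least-squares fitting of single-cycle kinetic sensorgrams. Peptide series (5–100 nM) flows over recombinant hTfR dimer immobilized on a Ni-NTA chip by EDC/NHS coupling, in pH 8.0 HEPES buffer containing 0.1% BSA and 1.0% DMSO.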

[1] = KD class for binding to hTfR by SPR, peptide with the linker shown in the same line, 'low signal indicates no activity', read-out: SPR
[2] = surface plasmon resonance, binding to hTfR, KD class symbol, read-out: SPR (KD value)
[3] = peptide with linker, surface plasmon resonance, read-out: SPR (KD class for binding to hTfR)

| Structure (SMILES) | Kd [2] [nM] | further results |
| --- | --- | --- |
| CC[C@H](C)[C@@H]1NC(=O)[C@H](Cc2ccc(OC)cc2)NC(=O)[C@H](Cc2ccc(N)nc2)NC(=O)[C@H](CC(N)=O)NC(=O)[C@H](Cc2cn(CC(=O)O)c3ccccc23)NC(=O)[C@H](C(C)C)NC(=O)[C@H](Cc2cccc(Cl)c2)N(C)C(=O)[C@H](C(C)C)NC(=O)[C@H](C)NC(=O)CSC[C@@H](C(=O)NCCOCCOCCOCCOCCC(N)=O)NC(=O)[C@H](Cc2ccc(O)cc2)N(C)C(=O)[C@H](Cc2ccccc2)NC(=O)[C@H](CCCNC(=N)N)NC(=O)[C@H](CCCNC(=N)N)NC(=O)[C@H]([C@@H](C)CC)NC1=O [894_0332] ({CH2CO}-AV[NMePhe(3-Cl)]V[Trp(1-CH2COOH)]N[3Pal(6-NH2)]Y(Me)IIRRF[NMeY]C[PEG4]-NH2; thioether N-15) | – | Kd [1]: 1 to 100 nM |
| CC[C@H](C)[C@@H]1NC(=O)[C@H](Cc2ccc(OC)cc2)NC(=O)[C@H](Cc2ccc(N)nc2)NC(=O)[C@H](CC(N)=O)NC(=O)[C@H](Cc2c[nH]c3ccccc23)NC(=O)[C@H](C(C)C)NC(=O)[C@H](Cc2cccnc2)N(C)C(=O)[C@H](C(C)C)NC(=O)[C@H](C)NC(=O)CSC[C@@H](C(=O)NCCOCCOCCOCCOCCC(N)=O)NC(=O)[C@H](Cc2ccc(O)cc2)N(C)C(=O)[C@H](Cc2ccccc2)NC(=O)[C@H](CCCNC(=N)N)NC(=O)[C@H](CCCNC(=N)N)NC(=O)[C@H]([C@@H](C)CC)NC1=O [compound 63] ({CH2CO}-AV[NMe3Pal]VWN[3Pal(6-NH2)]Y(Me)IIRRF[NMeY]C[PEG4]-NH2; thioether N-15) | 1 to 100 | – |
| CC[C@H](C)[C@@H]1NC(=O)[C@H](Cc2ccc(OCC(=O)O)cc2)NC(=O)[C@H](Cc2ccc(N)nc2)NC(=O)[C@H](CC(N)=O)NC(=O)[C@H](Cc2cn(CC(=O)O)c3ccccc23)NC(=O)[C@H](C(C)C)NC(=O)[C@H](Cc2cccc(Cl)c2)N(C)C(=O)[C@H](C(C)C)NC(=O)[C@H](C)NC(=O)CSC[C@@H](C(=O)NCCOCCOCCOCCOCCC(N)=O)NC(=O)[C@H](Cc2ccc(O)cc2)N(C)C(=O)[C@H](Cc2ccncc2)NC(=O)[C@H](CCCNC(=N)N)NC(=O)[C@H](CCC(=O)NCCOCCOCCOCCOC)NC(=O)[C@H]([C@@H](C)CC)NC1=O [compound 117] | 1 to 100 | – |
| CC[C@H](C)[C@@H]1NC(=O)[C@H](Cc2ccc(OCC(=O)O)cc2)NC(=O)[C@H](Cc2ccc(N)nc2)NC(=O)[C@H](CC(N)=O)NC(=O)[C@H](Cc2c[nH]c3ccccc23)NC(=O)[C@H](C(C)C)NC(=O)[C@H](Cc2cccc(Cl)c2)N(C)C(=O)[C@H](C(C)C)NC(=O)[C@H](C)NC(=O)CSC[C@@H](C(=O)NCCOCCOCCOCCOCCC(N)=O)NC(=O)[C@H](Cc2ccc(O)cc2)N(C)C(=O)[C@H](Cc2cccc(C(=O)O)c2)NC(=O)[C@H](CCC(=O)NCCOCCOCCOCCOCCOCCOCCOCCOC)NC(=O)[C@H](CCCNC(=N)N)NC(=O)[C@H]([C@@H](C)CC)NC1=O [compound 99] ({CH2CO}-AV[NMePhe(3-Cl)]VWN[3Pal(6-NH2)]Y(Carboxymethyl)IIRE(NH(CH2CH2O)8Me)[Phe(3-COOH)][NMeY]C[PEG4]-NH2; thioether N-15) | 1 to 100 | – |
| CC[C@H](C)[C@@H]1NC(=O)[C@H](Cc2cccnc2)NC(=O)[C@H](Cc2ccc(O)cc2)NC(=O)[C@H](CC(N)=O)NC(=O)[C@H](Cc2c[nH]c3ccccc23)NC(=O)[C@H](C(C)C)NC(=O)[C@H](Cc2cccc(Cl)c2)N(C)C(=O)[C@H](C(C)C)NC(=O)[C@H](C)NC(=O)CSC[C@@H](C(=O)NCCOCCOCCOCCOCCC(N)=O)NC(=O)[C@H](Cc2ccc(O)cc2)N(C)C(=O)[C@H](Cc2ccncc2)NC(=O)[C@H](CCC(=O)NCCOCCOCCOCCOCCOCCOCCOCCOC)NC(=O)[C@H](CCCNC(=N)N)NC(=O)[C@H]([C@@H](C)CC)NC1=O [compound 94] ({CH2CO}-AV[NMePhe(3-Cl)]VWNY[3Pal]IIRE(NH(CH2CH2O)8Me)[4Pal][NMeY]C[PEG4]-NH2; thioether N-15) | 1 to 100 | – |
| CC[C@H](C)[C@@H]1NC(=O)[C@H](Cc2ccc(OCC(=O)O)cc2)NC(=O)[C@H](Cc2ccc(O)cc2)NC(=O)[C@H](CC(N)=O)NC(=O)[C@H](Cc2cn(CC(=O)O)c3ccccc23)NC(=O)[C@H](C(C)C)NC(=O)[C@H](Cc2cccc(Cl)c2)N(C)C(=O)[C@H](C(C)C)NC(=O)[C@H](C)NC(=O)CSC[C@@H](C(=O)NCCOCCOCCOCCOCCC(N)=O)NC(=O)[C@H](Cc2ccc(O)cc2)N(C)C(=O)[C@H](Cc2ccccc2)NC(=O)[C@H](CCCNC(=N)N)NC(=O)[C@H](CCC(=O)NCCO)NC(=O)[C@H]([C@@H](C)CC)NC1=O [894_0380] | – | Kd [1]: 1 to 100 nM |
| CC[C@H](C)[C@@H]1NC(=O)[C@H](Cc2ccc(OCC(=O)O)cc2)NC(=O)[C@H](Cc2ccc(O)cc2)NC(=O)[C@H](CC(N)=O)NC(=O)[C@H](Cc2cn(CC(=O)O)c3ccccc23)NC(=O)[C@H](C(C)C)NC(=O)[C@H](Cc2cccc(Cl)c2)N(C)C(=O)[C@H](C(C)C)NC(=O)[C@H](C)NC(=O)CSC[C@@H](C(=O)NCCOCCOCCOCCOCCC(N)=O)NC(=O)[C@H](Cc2ccc(O)cc2)N(C)C(=O)[C@H](Cc2ccncc2)NC(=O)[C@H](CCCNC(=N)N)NC(=O)[C@H](CCCNC(=N)N)NC(=O)[C@H]([C@@H](C)CC)NC1=O [compound 76] | 1 to 100 | – |
| CC[C@H](C)[C@@H]1NC(=O)[C@H](Cc2ccc(OCC(=O)O)cc2)NC(=O)[C@H](Cc2ccc(O)cc2)NC(=O)[C@H](CC(N)=O)NC(=O)[C@H](Cc2cn(CC(=O)O)c3ccccc23)NC(=O)[C@H](C(C)C)NC(=O)[C@H](Cc2cccc(Cl)c2)N(C)C(=O)[C@H](C(C)C)NC(=O)[C@H](C)NC(=O)CSC[C@@H](C(=O)NCCOCCOCCOCCOCCC(N)=O)NC(=O)[C@H](Cc2ccc(O)cc2)N(C)C(=O)[C@H](Cc2cccc(C(=O)O)c2)NC(=O)[C@H](CCCNC(=N)N)NC(=O)[C@H](CCC(N)=O)NC(=O)[C@H]([C@@H](C)CC)NC1=O [compound 136] | 1 to 100 | – |
| CC[C@H](C)[C@@H]1NC(=O)[C@H](Cc2ccc(OCC(=O)O)cc2)NC(=O)[C@H](Cc2ccc(O)cc2)NC(=O)[C@H](CC(N)=O)NC(=O)[C@H](Cc2c[nH]c3ncccc23)NC(=O)[C@H](C(C)C)NC(=O)[C@H](Cc2cccc(Cl)c2)N(C)C(=O)[C@H](C(C)C)NC(=O)[C@H](C)NC(=O)CSC[C@@H](C(=O)NCCOCCOCCOCCOCCC(N)=O)NC(=O)[C@H](Cc2ccc(O)cc2)N(C)C(=O)[C@H](Cc2ccncc2)NC(=O)[C@H](CCCNC(=N)N)NC(=O)[C@H](CCC(=O)NCCOCCOCCOCCOCCOCCOCCOCCOC)NC(=O)[C@H]([C@@H](C)CC)NC1=O [compound 218] | – | Kd [3]: 1 to 100 nM |
| CC[C@H](C)[C@@H]1NC(=O)[C@H](Cc2ccc(OCC(=O)O)cc2)NC(=O)[C@H](Cc2ccc(N)nc2)NC(=O)[C@H](CC(N)=O)NC(=O)[C@H](Cc2c[nH]c3ncccc23)NC(=O)[C@H](C(C)C)NC(=O)[C@H](Cc2cccc(Cl)c2)N(C)C(=O)[C@H](C(C)C)NC(=O)[C@H](C)NC(=O)CSC[C@@H](C(=O)NCCOCCOCCOCCOCCC(N)=O)NC(=O)[C@H](Cc2ccc(O)cc2)N(C)C(=O)[C@H](Cc2ccncc2)NC(=O)[C@H](CCCNC(=N)N)NC(=O)[C@H](CCC(=O)NCCOCCOCCOCCOCCOCCOCCOCCOC)NC(=O)[C@H]([C@@H](C)CC)NC1=O [compound 224] | – | Kd [3]: 1 to 100 nM |
| CC[C@H](C)[C@@H]1NC(=O)[C@H](Cc2ccc(OCC(=O)O)cc2)NC(=O)[C@H](Cc2ccc(O)cc2)NC(=O)[C@H](CC(N)=O)NC(=O)[C@H](Cc2cn(CC(=O)O)c3ccccc23)NC(=O)[C@H](C(C)C)NC(=O)[C@H](Cc2cccc(Cl)c2)N(C)C(=O)[C@H](C(C)C)NC(=O)[C@H](C)NC(=O)CSC[C@@H](C(=O)NCCOCCOCCOCCOCCC(N)=O)NC(=O)[C@H](Cc2ccc(O)cc2)N(C)C(=O)[C@H](Cc2cccc(C(=O)O)c2)NC(=O)[C@H](CCCCN2CCOCC2)NC(=O)[C@H](CCC(N)=O)NC(=O)[C@H]([C@@H](C)CC)NC1=O [compound 216] ({CH2CO}-AV[NMePhe(3-Cl)]V[Trp(1-CH2COOH)]NYY(Carboxymethyl)IIQ[Nle(6-morpholino)][Phe(3-COOH)][NMeY]C[PEG4]-NH2; thioether N-15) | – | Kd [3]: 1 to 100 nM |
| CC[C@H](C)[C@@H]1NC(=O)[C@H](Cc2ccc(OC)cc2)NC(=O)[C@H](Cc2ccc(O)cc2)NC(=O)[C@H](CC(N)=O)NC(=O)[C@H](Cc2c[nH]c3ccc(Cl)cc23)NC(=O)[C@H](C(C)C)NC(=O)[C@H](Cc2ccccc2)N(C)C(=O)[C@H](C(C)C)NC(=O)[C@H](C)NC(=O)CSC[C@@H](C(=O)NCCOCCOCCOCCOCCC(N)=O)NC(=O)[C@H](Cc2ccc(O)cc2)N(C)C(=O)[C@H](Cc2ccc(O)cc2)NC(=O)[C@H](CCCNC(=N)N)NC(=O)[C@H](CCCNC(=N)N)NC(=O)[C@H]([C@@H](C)CC)NC1=O [compound 37] | < 1 | – |
| CC[C@H](C)[C@@H]1NC(=O)[C@H](Cc2ccc(O)cc2)NC(=O)[C@H](Cc2ccc(O)cc2)NC(=O)[C@H](CC(=O)N(C)C)NC(=O)[C@H](Cc2c[nH]c3ccccc23)NC(=O)[C@H](C(C)C)NC(=O)[C@H](Cc2ccccc2)N(C)C(=O)[C@H](C(C)C)NC(=O)[C@H](C)NC(=O)CSC[C@@H](C(N)=O)NC(=O)[C@H](Cc2ccc(O)cc2)N(C)C(=O)[C@H](Cc2ccc(O)cc2)NC(=O)[C@H](CCCNC(=N)N)NC(=O)[C@H](CCCNC(=N)N)NC(=O)[C@H]([C@@H](C)CC)NC1=O [compound 9] | 100 to 1000 | – |
| CC[C@H](C)[C@@H]1NC(=O)[C@H](Cc2ccc(OC)cc2)NC(=O)[C@H](Cc2ccc(O)cc2)NC(=O)[C@H](CC(N)=O)NC(=O)[C@H](Cc2c[nH]c3ccccc23)NC(=O)[C@H](C(C)C)NC(=O)[C@H](Cc2cccc(Cl)c2)N(C)C(=O)[C@H](C(C)C)NC(=O)[C@H](C)NC(=O)CSC[C@@H](C(=O)NCCOCCOCCOCCOCCC(N)=O)NC(=O)[C@H](Cc2ccc(O)cc2)N(C)C(=O)[C@H](Cc2ccc(O)cc2)NC(=O)[C@H](CCCNC(=N)N)NC(=O)[C@H](CCCNC(=N)N)NC(=O)[C@H]([C@@H](C)CC)NC1=O [compound 38] | < 1 | – |
